What was measured:
[1] = tested on: ovariectomized osteoporosis rat model; experiment: Micro-CT of right femurs; type: in vivo, SD rats; conditions: vs Model group
Method: 1, the construction of ovariectomized rats models: SD rats are kept in a clean environment under a controlled room temperature at 25±2° C. and alternates 12/12 light and dark every day, and the SD rats feed freely. After one week adaptive feeding, randomly select 8 female rats, anesthetize them with 1% (v/v) pentobarbital sodium (40 mg/kg BW), and remove a little fat near ovaries. The remaining 40 rats are ovariectomized after being anesthetized with pentobarbital sodium. The recovery situation is observed in a 4-week recovery period, and their weight changes are detected. These are prepared by the applicant in advance. (any research about metabolic fingerprint changes of ovariectomized osteoporotic rats after intervention with bone peptide have not been reported according to the existing literature). 2, animal grouping and samples collection: the 8 female rats with a little fat near ovaries removed are selected as a sham-operated group, the ovariectomized 40 rats are randomly divided into 5 groups with 8 rats in each group, and are named by a negative control group, a positive control group, a low-concentration treatment group, a medium-concentration treatment group and a high-concentration treatment group. The rats are perfused by different solutions of bovine bone peptide (diluted by ultrapure water, and sterilized) with concentration of 100 mg/kg, 200 mg/kg, and 500 mg/kg according to the weights of the rats. The rats in the negative control group are perfused with equal volume of ultrapure sterile water (a perfusing volume is generally 1-2 mL/100 g BW), and the rats in the positive control group are perfused with 50 μg/kg of 17β-estradiol (ES). Observe weight changes of the rats and measure the weights every two weeks. After perfusing experiment, the rats are sacrificed in accordance with the animal welfare operating procedures, femurs and tibias on both sides are taken, and soft tissues such as muscle and fascia attached to bone tissues are removed. The right tibias are subjected to paraffin-embedded H&E staining treatment after fixing in a phosphate-formalin buffer for 24 hours for morphometric analysis of the tibias of the rats. Left femurs and right femurs is soaked with normal saline, washed repeatedly for 3 times, wrapped with medical gauzes (pre-soaked with normal saline) and tinfoil, and then stored in a −20° C. refrigerator for trabecular bone microstructure (micro-CT scanning) and mechanical strength tests of bone biomechanical indexes (three-point bending test). In the screening method of the biomarkers in the anti-osteoporosis activity of bone peptide, the specific implementation steps of determining biomechanical indexes of the right femurs of the rats by the Micro-CT method are as follows: determining femur microstructures by Micro Computed Tomography (Micro-CT, Inveon-type, SIEMENS, Germany) with scanning parameters: a span voltage of 80 kV, a scanning current of 500 μA, and a scanning thickness (resolution) of […] Region of interest (ROI) of femurs starts from 1 mm below a bone tissue growth-plate. Scan the layers downward and sequentially. Select the bone tissue with a thickness of 100 layers as cancellous ROI for three-dimensional reconstruction to obtain a visualized 3D image. The obtained scanning data are subjected to morphometric calculation of femur tissues using Inveon Research Workplace software (SIEMENS, Germany). […]

[2] = tested on: ovariectomized osteoporosis rat model; experiment: non-targeted serum metabolomics (UPLC/Q-TOF-MS); type: in vivo, SD rats; conditions: ES group vs Model group
Method: 1, the construction of ovariectomized rats models: SD rats are kept in a clean environment under a controlled room temperature at 25±2° C. and alternates 12/12 light and dark every day, and the SD rats feed freely. After one week adaptive feeding, randomly select 8 female rats, anesthetize them with 1% (v/v) pentobarbital sodium (40 mg/kg BW), and remove a little fat near ovaries. The remaining 40 rats are ovariectomized after being anesthetized with pentobarbital sodium. The recovery situation is observed in a 4-week recovery period, and their weight changes are detected. These are prepared by the applicant in advance. (any research about metabolic fingerprint changes of ovariectomized osteoporotic rats after intervention with bone peptide have not been reported according to the existing literature).
2, animal grouping and samples collection: the 8 female rats with a little fat near ovaries removed are selected as a sham-operated group, the ovariectomized 40 rats are randomly divided into 5 groups with 8 rats in each group, and are named by a negative control group, a positive control group, a low-concentration treatment group, a medium-concentration treatment group and a high-concentration treatment group. The rats are perfused by different solutions of bovine bone peptide (diluted by ultrapure water, and sterilized) with concentration of 100 mg/kg, 200 mg/kg, and 500 mg/kg according to the weights of the rats. The rats in the negative control group are perfused with equal volume of ultrapure sterile water (a perfusing volume is generally 1-2 mL/100 g BW), and the rats in the positive control group are perfused with 50 μg/kg of 17β-estradiol (ES). Observe weight changes of the rats and measure the weights every two weeks.
Urine is automatically collected with a metabolic cage for 12 hours every 4 weeks (the urine is collected as much as possible under the premise of ensuring normal signs of the rats). 1 mmol/L NaN3 solution is added into collected urine as a preservative, the collected urine is placed in a centrifuge at 4° C. and centrifuged at a speed of 10000×g for 10 minutes, and the supernatant is collected, distributed and stored in a refrigerator at −80° C. for determining. The rats are fasted for 12 hours at 4th week, 8th week, and 12th week. Fasted rats are anesthetized by intraperitoneal injection of pentobarbital sodium (40 mg/kg BW) with a volume concentration of 1%, and are subjected to blood collection from the abdominal aorta (the blood is collected as much as possible under the premise of ensuring normal signs of the rats). Collected blood is placed at 4° C. for 3 h and is centrifuged (5000 rpm) for 10 minutes. Upper serum is collected (collecting 2 mL of blood, separating into 4 tubes after separating the serum), is divided into 0.5 mL EP tubes, and stored in a refrigerator at −80° C. for later use. The metabolic cage comprises a cage body with a bottom and a metabolite collecting part. The metabolite collecting part is arranged below the cage body and comprises a barrel 1 and a cover 2 mounted on an upper end of a peripheral wall of a first side of the barrel, an upper end of a peripheral wall of a second side of the barrel is provided with a drainage port, and a solid-liquid separating part is arranged in the barrel. The solid-liquid separating part comprises an arc-shaped partition plate 3 with a first end fixed with a peripheral wall of the barrel and multi-stage filter plates 4, which divide an inner space of the barrel into a first accommodating space and a second accommodating space. The multi-stage filter plates are arranged in the second accommodating space along a vertical direction, and the multi-stage filter plates are successively arranged end to end to form a folded-line diversion channel. A depth of a bottom wall of the barrel from the first side to the second side becomes larger. […]

C[C@]12CC[C@@H]3c4ccc(O)cc4CC[C@H]3[C@@H]1CC[C@@H]2O [ES, 17β-estradiol]
osteoporosis of the rats (three dimensional reconstruction of femur bone microstructures) ([1]; after treatment): improved to a certain extent
bone volume fraction (BV/TV) ([1]; right femur): on a rise trend
trabecular bone density (Tb.BMD) ([1]; right femur): on a rise trend
trabecular bone number (Tb.N) ([1]; right femur): on a rise trend
trabecular bone thickness (Tb.Th) ([1]; right femur): on a rise trend
serum 1-O-(cis-9-octadecenyl)-2-O-acetyl-sn-glycerol-3-phosphocholine change [2]: up-regulated trend
serum 1-oleoyl-sn-glycerol-3-phosphocholine change [2]: up-regulated trend
serum 1-palmitoyl-sn-glycerol-3-phosphocholine change [2]: up-regulated trend
serum 1-stearoyl-sn-glycerol-3-phosphocholine change [2]: up-regulated trend
serum L-palmitoyl change [2]: up-regulated trend
serum L-pyroglutamic acid change [2]: down-regulated trend
serum isoleucine-arginine change [2]: down-regulated trend
serum pantothenic acid change [2]: up-regulated trend
